Assay results as given in patent US20150352108A1, “AMINO-PYRIMIDINE COMPOUNDS AS INHIBITORS OF TBK1 AND/OR IKK EPSILON” (Alzheimer's Institute of America, priority 2009, published 2015).

Experiments:
[1] = test system: IKKε-mediated phosphorylation of IRF3; assay: In-situ phosphorylation of IRF3 (pIRF3 Ser396 ELISA) in HEK293T cells cotransfected with IRF3 and IKKε; assay type: cell-based; details: Homo sapiens, HEK-293T; HEK293T cells, 20 hours, text bins; read-out: IC50 for inhibition of the in-situ IKKε-mediated phosphorylation of IRF3
Method in brief: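 For the IRF3 ELISA, HEK293T cells cotransfected with IRF3 and IKKε were replated at 20,000/well and treated 20 h. Phospho-Ser396 IRF3 was measured by ELISA and normalised to DMSO, with viability checked by CellTiter-Glo. For IRF7, cells transfected with IRF7 and TBK1 were treated overnight, and pSer477/Ser479 IRF7 was detected by Western blot.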

[2] = test system: IKKε-mediated phosphorylation of IRF7; assay: In-situ IKKε-mediated phosphorylation of IRF7 in HEK293T cells (Western blot); assay type: cell-based
[3] = test system: RANTES production, human fibroblast-like synoviocytes (HFLS-RA); assay: Inhibition of RANTES production by HFLS-RA cells induced with Poly(I:C); assay type: cell-based; details: Poly(I:C) induction
Experimental: (§1) HFLS cells (HFLS-RA) isolated from patients with rheumatoid arthritis were obtained from Cell Applications, Inc. (San Diego, Calif.). Cells were seeded in synoviocyte growth medium (Cell Applications, Inc., San Diego, Calif.) and allowed to grow overnight. The following day, media was replaced and cells were treated with varying concentrations of selected compounds according to Formula I (e.g., Example Compound 5) (0.1% final DMSO concentration). Two hours later, cells were induced with 50 µg/mL Poly(I:C) (Sigma-Aldrich, St. Louis, Mo.). Supernatants were collected 20 hours post-induction and used to monitor RANTES and IP-10 levels using DuoSet ELISA kits (Human CXCL10/IP-10 DuoSet & Human CCL5/RANTES DuoSet; R&D Systems, Inc., Minneapolis, Minn.).

[4] = test system: IP-10 production, human fibroblast-like synoviocytes (HFLS-RA); assay: Inhibition of IP-10 production by HFLS-RA cells induced with Poly(I:C); assay type: cell-based; details: Poly(I:C) induction
Experimental: as §1

[5] = test system: insulin-stimulated glucose uptake, 3T3-L1 adipocytes; assay: Glucose uptake assay using differentiated 3T3-L1 adipocytes; assay type: cell-based, Murine; details: palmitic acid 48 hours
Experimental: To determine if IKK/TBK1 inhibitors prevent fatty acid induced insulin resistance in 3T3-L1 adipocytes, insulin-stimulated glucose uptake in the presence of compounds according to Formula I was monitored.
Murine 3T3-L1 cells were differentiated to adipocytes in 96-well plates by incubating for 2 days in adipogenic cocktail (10 ug/ml insulin, 115 ug/ml isobutylmethylxanthine, 1 uM dexamethasone) followed by incubation in insulin-supplemented medium for 2 days and complete media for an additional 5-10 days. Adipocytes were treated with BSA-complexed palmitic acid and a compound according to Formula I for 48 hours. Following free fatty acid treatment, adipoctyes were insulin-deprived in serum-free media for 2 hours. Subsequently, the media was replaced with KRH buffer containing a compound according to Formula I and 300 nM insulin for 15-20 minutes. [^14C]-labeled 2-deoxyglucose was then added for 15 minutes. Cells were thoroughly washed with ice-cold PBS, and intracellular [^14C]-2-deoxyglucose was measured in cell lysates by scintillation.

[6] = test system: IFN-α2 mRNA, normal PBMCs; assay: Agonist induced IFN-α2 mRNA in PBMCs from healthy donors (qRT-PCR); assay type: cell-based, human; details: LMW poly(I:C), serial dilutions
Source text: (§2) To determine if inhibition of IKKε and/or TBK1 modulates nucleic acid agonist induced gene expression, high molecular weight poly(I:C) (MDA5 agonist) and low weight poly(I:C) (RIG-I agonist) were electroporated into human peripheral blood mononuclear cells (PBMCs) obtained from normal donors, or low molecular weight Poly(I:C) was electroporated into PBMCs from donors that have Systemic Lupus Erythematosus (SLE). Induction of IFN-α2, IFN-β, and BLyS mRNA production was monitored by qRT-PCR.
(§3) Human PBMCs were collected from healthy donors using routine laboratory procedures. PBMCs from SLE patients were purchased from Astarte Biologics (Redmond, Wash.). The PBMCs were electroporated using Nucleofector® Kit V (Lonza, Walkersville, Md.) with 0.4 ug/mL of high molecular weight poly (I:C) (InvivoGen, San Diego, Calif.) or 0.4 ug/mL low molecular weight poly (I:C) (InvivoGen, San Diego, Calif.) and seeded into wells containing serial dilutions of Example Compound 5 (0.1% final DMSO concentration). […] RNA was quantitated using Quant-iT™ RiboGreen® RNA Assay Kit (Invitrogen, Carlsbad, Calif.). Reverse transcription and real-time PCR were performed using the QuantiTect Probe RT-PCR Kit (Qiagen, Germantown, Md.) and the 7300 Real-Time PCR System (Applied Biosytems, Foster City, Calif.). […]

[7] = test system: IFN-β1 mRNA, normal PBMCs; assay: Agonist induced IFN-β1 mRNA in PBMCs from healthy donors (qRT-PCR); assay type: cell-based, human; details: LMW poly(I:C), serial dilutions
Source text: as §2, §3

IFN-α2 mRNA, SLE PBMCs = assay: Agonist induced IFN-α2 mRNA in PBMCs from SLE patients (qRT-PCR); assay type: cell-based, human; details: LMW poly(I:C), serial dilutions
Source text: as §2, §3

IFN-β1 mRNA, SLE PBMCs = assay: Agonist induced IFN-β1 mRNA in PBMCs from SLE patients (qRT-PCR); assay type: cell-based, human; details: LMW poly(I:C), serial dilutions
Source text: as §2, §3

N#Cc1cc(-c2ccnc(Nc3ccc(N4CCOCC4)cc3)n2)ccc1OC1CCOCC1 [Example 5, 5-(2-{[4-(Morpholin-4-yl)phenyl]amino}pyrimidin-4-yl)-2-(tetrahydro-2H-pyran-4-yloxy)benzaonitrile]
IC50 [1]: < 100 nM
inhibition of IKKε-mediated phosphorylation of IRF7 [2]: inhibit
IC50 [3]: ~60 nM
IC50 [4]: ~60 nM
effect on free fatty acid inhibition of insulin-stimulated glucose uptake [5]: reverse the inhibitory effects of free fatty acid on insulin-stimulated glucose uptake
induction of IFN-α2 mRNA [6]: potently inhibited
induction of IFN-β1 mRNA [7]: potently inhibited
induction of IFN-α2 mRNA (IFN-α2 mRNA, SLE PBMCs): potently inhibited
induction of IFN-β1 mRNA (IFN-β1 mRNA, SLE PBMCs): potently inhibited
